Patent publication US10072011B2, “Substituted bridged urea analogs as sirtuin modulators” (GlaxoSmithKline Intellectual Property (No.2) Limited, priority 2014, dated 2018)

Biological target: T1, SIRT1 (Homo sapiens, UniProt Q96EB6)
T1 sequence (Q96EB6 1-747): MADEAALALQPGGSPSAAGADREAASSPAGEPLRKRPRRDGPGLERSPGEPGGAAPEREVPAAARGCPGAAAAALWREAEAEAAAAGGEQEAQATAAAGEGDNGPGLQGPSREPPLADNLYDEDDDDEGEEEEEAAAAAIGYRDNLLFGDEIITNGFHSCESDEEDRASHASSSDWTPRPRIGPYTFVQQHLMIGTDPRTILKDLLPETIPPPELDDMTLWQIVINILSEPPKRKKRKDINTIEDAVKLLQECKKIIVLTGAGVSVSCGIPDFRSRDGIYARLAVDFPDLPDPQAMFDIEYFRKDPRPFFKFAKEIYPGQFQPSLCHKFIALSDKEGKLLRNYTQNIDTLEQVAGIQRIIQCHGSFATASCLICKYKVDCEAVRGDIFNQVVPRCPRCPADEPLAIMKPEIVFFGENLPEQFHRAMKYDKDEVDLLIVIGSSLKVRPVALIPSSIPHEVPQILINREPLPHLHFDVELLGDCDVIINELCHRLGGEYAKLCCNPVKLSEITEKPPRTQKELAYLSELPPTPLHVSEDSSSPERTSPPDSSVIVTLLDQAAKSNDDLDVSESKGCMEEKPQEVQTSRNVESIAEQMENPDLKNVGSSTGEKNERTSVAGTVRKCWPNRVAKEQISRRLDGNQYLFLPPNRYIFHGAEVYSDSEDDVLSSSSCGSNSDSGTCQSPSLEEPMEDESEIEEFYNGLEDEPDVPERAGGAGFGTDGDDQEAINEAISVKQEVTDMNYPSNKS
Test: Trp mass spectrometry assay of SIRT1 activation (Ac-R-H-K-K(Ac)-W-NH2 peptide)
Type: biochemical
Conditions: Trp peptide 0.5 μM, 120 μM βNAD+, 10 nM SIRT1, 25 min at 25° C.; for Emax: 25 min, read-out: TRP MAX RESP (percent maximum fold activation)
Experimental: The Trp mass spectrometry assay was conducted as follows. […] The SIRT1 protein was obtained by cloning the SirT1 gene into a T7-promoter containing vector, which was then expressed in BL21(DE3) bacterial cells and purified as described in further detail below. Test compound was added at varying concentrations to this reaction mixture and the resulting reactions were monitored. After the 25 minute incubation with SIRT1, 10 μL of 10% formic acid was added to stop the reaction. The resulting reactions were sealed and frozen for later mass spec analysis. The relative SIRT1 activity was then determined by measuring the amount of O-acetyl-ADP-ribose (OAADPR) formed (or, alternatively, the amount of deacetylated Trp peptide generated) by the NAD-dependent sirtuin deacetylation reaction in the presence of varying concentrations of the test compound versus control reactions lacking the test compound. The degree to which the test agent activated deacetylation by SIRT1 was expressed as EC1.5 (i.e., the concentration of compound required to increase SIRT1 activity by 50% over the control lacking test compound), and Percent Maximum Activation (i.e., the maximum activity relative to control (100%) obtained for the test compound).
This time point was the same as that used for test compounds and, within the linear range, the endpoint represents a change in velocity.
For the above assay, SIRT1 protein was expressed and purified as follows. The SirT1 gene was cloned into a T7-promoter containing vector and transformed into BL21(DE3). The protein was expressed by induction with 1 mM IPTG as an N-terminal His-tag fusion protein at 18° C. overnight and harvested at 30,000×g. Cells were lysed with lysozyme in lysis buffer (50 mM Tris-HCl, 2 mM Tris[2-carboxyethyl]phosphine (TCEP), 10 μM ZnCl2, 200 mM NaCl) and further treated with sonication for 10 min for complete lysis. The protein was purified over a Ni-NTA column (Amersham) and fractions containing pure protein were pooled, concentrated and run over a sizing column (Sephadex S200 26/60 global). The peak containing soluble protein was collected and run on an Ion-exchange column (MonoQ). Gradient elution (200 mM-500 mM NaCl) yielded pure protein. This protein was concentrated and dialyzed against dialysis buffer (20 mM Tris-HCl, 2 mM TCEP) overnight. The protein was aliquoted and frozen at −80° C. until further use.
“NT” means not tested; “ND” means not determinable.

Row | Structure (SMILES) | Emax (relative to control (100%)) [%] | TRP Activity (EC1.5, concentration of test compound that results in 150% activation of SIRT1) | TRP MAX RESP (percent maximum fold activation) (relative to control (100%))
1 | O=C(N[C@H]1C[C@H](O)C1)c1ccc2c(n1)N(C(=O)Nc1ccccn1)[C@H]1CCN2C1 (racemic) [Example 210, (4S)—N7-((1r,3S)-3-hydroxycyclobutyl)-N5-(pyridin-2-yl)-3,4-dihydro-1,4-methanopyrido[2,3-b][1,4]diazepine-5,7(2H)-dicarboxamide] | > 150 | B (EC1.5 1-25 μM) | –
2 | O=C(NC(CCO)C(F)(F)F)c1ccc2c(n1)N(C(=O)Nc1ccccn1)[C@H]1CCN2C1 (single isomer, unassigned) [Example 18] | > 150 | A (EC1.5<1 μM) | –
3 | O=C(NC1CC1(F)F)c1ccc2c(n1)N(C(=O)Nc1ccccn1)[C@H]1CCN2C1 (single isomer, unassigned) [Example 43] | > 150 | A (EC1.5<1 μM) | –
4 | O=C(NC1CC1(F)F)c1ccc2c(n1)N(C(=O)Nc1ccccn1)[C@H]1CCN2C1 (single isomer, unassigned) [Example 44] | – | A (EC1.5<1 μM) | –
5 | NC(CNC(=O)c1ccc2c(n1)N(C(=O)Nc1ccccn1)[C@H]1CCN2C1)C(F)(F)F (single isomer, unassigned) [Example 49] | > 150 | B (EC1.5 1-25 μM) | –
6 | NC[C@H](NC(=O)c1ccc2c(n1)N(C(=O)Nc1ccccn1)[C@H]1CCN2C1)C(F)(F)F (single isomer, unassigned) [Example 50] | > 150 | A (EC1.5<1 μM) | –
7 | O=C(NC(CO)C1CC1)c1ccc2c(n1)N(C(=O)Nc1ccccn1)[C@H]1CCN2C1 (single isomer, unassigned) [Example 58] | > 150 | A (EC1.5<1 μM) | –
8 | COCC(NC(=O)c1ccc2c(n1)N(C(=O)Nc1ccccn1)[C@H]1CCN2C1)C1CC1 (single isomer, unassigned) [Example 59] | > 150 | A (EC1.5<1 μM) | –
9 | COCC(NC(=O)c1ccc2c(n1)N(C(=O)Nc1ccccn1)[C@H]1CCN2C1)C1CC1 (single isomer, unassigned) [Example 60] | – | A (EC1.5<1 μM) | –
10 | Cc1ccc2c(NC(=O)N3c4nc(C(=O)NC5CC5(F)F)ccc4N4CC[C@H]3C4)n[nH]c2n1 (single isomer, unassigned) [Example 65] | > 150 | A (EC1.5<1 μM) | –
11 | O=C(N[C@H](CO)C(F)(F)F)c1ccc2c(n1)N(C(=O)Nc1cc(OC[C@H](O)CO)ccn1)[C@H]1CCN2C1 (single isomer, unassigned) [Example 92] | > 150 | A (EC1.5<1 μM) | –
12 | CC(NC(=O)c1ccc2c(n1)N(C(=O)Nc1ccccn1)[C@H]1CCN2C1)C1CC1 (single isomer, unassigned) [Example 100] | > 150 | A (EC1.5<1 μM) | –
13 | CC(NC(=O)c1ccc2c(n1)N(C(=O)Nc1ccccn1)[C@H]1CCN2C1)C1CC1 (single isomer, unassigned) [Example 101] | – | A (EC1.5<1 μM) | –
14 | CC(C#N)NC(=O)c1ccc2c(n1)N(C(=O)Nc1ccccn1)[C@H]1CCN2C1 (single isomer, unassigned) [Example 102] | > 150 | A (EC1.5<1 μM) | –
15 | CC(C#N)NC(=O)c1ccc2c(n1)N(C(=O)Nc1ccccn1)[C@H]1CCN2C1 (single isomer, unassigned) [Example 103] | – | A (EC1.5<1 μM) | –
16 | O=C(N[C@H](CO)C(F)(F)F)c1ccc2c(n1)N(C(=O)Nc1cnccn1)[C@H]1CCN2C1 (single isomer, unassigned) [Example 119] | > 150 | A (EC1.5<1 μM) | –
17 | Cc1ncc(-c2ccnc(NC(=O)N3c4nc(C(=O)N[C@H](CO)C(F)(F)F)ccc4N4CC[C@H]3C4)c2)o1 (single isomer, unassigned) [Example 125] | > 150 | A (EC1.5<1 μM) | –
18 | NC(CNC(=O)c1ccc2c(n1)N(C(=O)Nc1cc(OC[C@H](O)CO)ccn1)[C@H]1CCN2C1)C(F)(F)F (single isomer, unassigned) [Example 196] | > 150 | B (EC1.5 1-25 μM) | –
19 | Cc1ccc2c(NC(=O)N3c4nc(C(=O)NCC(N)C(F)(F)F)ccc4N4CC[C@H]3C4)n[nH]c2n1 (single isomer, unassigned) [Example 197] | > 150 | B (EC1.5 1-25 μM) | –
20 | NC(CNC(=O)c1ccc2c(n1)N(C(=O)Nc1ncccn1)[C@H]1CCN2C1)C(F)(F)F (single isomer, unassigned) [Example 198] | > 150 | B (EC1.5 1-25 μM) | –
21 | COCC(O)CNC(=O)c1ccc2c(n1)N(C(=O)Nc1ccccn1)[C@H]1CCN2C1 (single isomer, unassigned) [Example 214] | > 150 | B (EC1.5 1-25 μM) | –
22 | Cc1ccc2c(NC(=O)N3c4nc(C(=O)NC5CC5(F)F)ccc4N4CC[C@H]3C4)n[nH]c2n1 (single isomer, unassigned) [Example 221] | – | B (EC1.5 1-25 μM) | A (Fold activation≥150%)
23 | NCC(NC(=O)c1ccc2c(n1)N(C(=O)Nc1ccccn1)[C@H]1CCN2C1)C(F)(F)F (single isomer, unassigned) [Example 223] | > 150 | B (EC1.5 1-25 μM) | –
24 | Cc1ccc2c(NC(=O)N3c4nc(C(=O)NC[C@@H](N)C(F)(F)F)ccc4N4CC[C@H]3C4)n[nH]c2n1 (single isomer, unassigned) [Example 233] | > 150 | – | –
25 | N[C@H](CNC(=O)c1ccc2c(n1)N(C(=O)Nc1ncccn1)[C@H]1CCN2C1)C(F)(F)F (single isomer, unassigned) [Example 235] | > 150 | A (EC1.5<1 μM) | –
26 | O=C(NC1CC1(F)F)c1ccc2c(n1)N(C(=O)Nc1ccc(F)cn1)[C@H]1CCN2C1 (single isomer, unassigned) [Example 242] | > 150 | A (EC1.5<1 μM) | –
27 | O=C(NC1CC1(F)F)c1ccc2c(n1)N(C(=O)Nc1ccc(F)cn1)[C@H]1CCN2C1 (single isomer, unassigned) [Example 243] | – | A (EC1.5<1 μM) | –
28 | O=C(NC1CC1(F)F)c1ccc2c(n1)N(C(=O)Nc1cc(OC[C@H](O)CO)ccn1)[C@H]1CCN2C1 (single isomer, unassigned) [Example 245] | > 150 | A (EC1.5<1 μM) | –
